Data: ChEMBL document CHEMBL4190226, “Designing novel inhibitors against histone acetyltransferase (HAT: GCN5) of Plasmodium falciparum” (Eur J Med Chem, 2017)
Activity calls are given as the source filed them. No cut-off for these calls is given here.

Biological target: Histone acetyltransferase GCN5 (Plasmodium falciparum (isolate 3D7)) (UniProt Q8IB67)
Assay: Inhibition of GCN5 in Plasmodium falciparum 3D7 assessed as reduction in H3K9 acetylation at 25 uM incubated for 15 mins measured by SDS-PAGE analysis

Histone acetyltransferase GCN5 (Plasmodium falciparum (isolate 3D7)), sequence (Q8IB67 as listed by the source): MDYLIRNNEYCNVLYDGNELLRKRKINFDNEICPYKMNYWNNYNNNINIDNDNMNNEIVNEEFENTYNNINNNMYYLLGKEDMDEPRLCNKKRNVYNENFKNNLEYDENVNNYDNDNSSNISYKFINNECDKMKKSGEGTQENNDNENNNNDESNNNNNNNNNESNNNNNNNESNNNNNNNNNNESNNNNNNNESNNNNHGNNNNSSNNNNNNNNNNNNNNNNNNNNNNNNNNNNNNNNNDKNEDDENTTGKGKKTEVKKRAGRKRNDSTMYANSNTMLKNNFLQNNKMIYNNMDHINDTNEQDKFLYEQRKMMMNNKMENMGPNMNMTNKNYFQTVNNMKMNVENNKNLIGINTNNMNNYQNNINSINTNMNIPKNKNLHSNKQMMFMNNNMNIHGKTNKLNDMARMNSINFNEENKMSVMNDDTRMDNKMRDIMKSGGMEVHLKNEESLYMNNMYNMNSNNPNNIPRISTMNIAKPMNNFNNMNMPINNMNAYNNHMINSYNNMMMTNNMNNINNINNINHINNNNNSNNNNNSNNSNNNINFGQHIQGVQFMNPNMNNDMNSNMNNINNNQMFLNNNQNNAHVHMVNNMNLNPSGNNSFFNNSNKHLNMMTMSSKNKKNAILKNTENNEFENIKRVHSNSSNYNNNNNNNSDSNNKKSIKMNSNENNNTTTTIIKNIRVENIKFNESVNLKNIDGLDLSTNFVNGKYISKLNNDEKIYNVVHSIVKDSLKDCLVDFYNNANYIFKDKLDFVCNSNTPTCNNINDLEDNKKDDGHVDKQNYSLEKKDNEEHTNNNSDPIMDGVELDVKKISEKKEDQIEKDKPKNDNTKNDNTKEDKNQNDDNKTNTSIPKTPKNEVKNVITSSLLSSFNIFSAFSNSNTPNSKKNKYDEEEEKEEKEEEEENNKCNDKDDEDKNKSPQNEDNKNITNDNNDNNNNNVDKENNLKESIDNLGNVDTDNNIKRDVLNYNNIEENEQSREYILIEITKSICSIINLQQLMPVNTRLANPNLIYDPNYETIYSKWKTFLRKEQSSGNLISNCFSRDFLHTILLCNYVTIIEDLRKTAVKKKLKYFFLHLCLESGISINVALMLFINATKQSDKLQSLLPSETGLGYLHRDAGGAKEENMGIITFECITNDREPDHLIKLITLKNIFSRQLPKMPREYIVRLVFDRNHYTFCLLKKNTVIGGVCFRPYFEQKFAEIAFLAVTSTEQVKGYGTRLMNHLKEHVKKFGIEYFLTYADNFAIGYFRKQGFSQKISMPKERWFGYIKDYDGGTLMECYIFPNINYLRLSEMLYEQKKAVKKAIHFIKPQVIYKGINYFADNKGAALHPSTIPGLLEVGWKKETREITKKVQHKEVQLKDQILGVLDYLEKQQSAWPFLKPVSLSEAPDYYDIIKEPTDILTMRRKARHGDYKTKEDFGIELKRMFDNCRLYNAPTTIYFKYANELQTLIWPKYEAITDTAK

`CCCCCCCCCCCC1=C(O)C(=O)C=C(O)C1=O` was tested, and the inhibition was “Active”.
